In patent US9221804B2, “Secondary alcohol quinolinyl modulators of RORγt” (Janssen Pharmaceutica NV, priority 2013, dated 2015) one finds IC50, inhibition and Kd data, which are given here for five compounds.

Assay [1] deals with T1, human RORγt LBD (Homo sapiens, UniProt P51449).
T1 construct: expressed in transfected cells; host or cells: HEK293T
T1 sequence (P51449 258-518): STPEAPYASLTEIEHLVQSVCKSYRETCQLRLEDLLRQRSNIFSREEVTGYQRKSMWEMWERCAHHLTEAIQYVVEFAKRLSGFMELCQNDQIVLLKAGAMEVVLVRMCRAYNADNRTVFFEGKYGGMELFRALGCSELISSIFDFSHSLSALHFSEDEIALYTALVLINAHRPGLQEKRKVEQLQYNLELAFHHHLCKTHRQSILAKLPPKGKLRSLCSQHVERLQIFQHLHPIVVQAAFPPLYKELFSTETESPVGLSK
Kind of assay: RORγt (LBD) Reporter Assay (GAL4 luciferase, HEK293T). In kind it is cell-based. Conditions: HEK293T cells; for IC50: 24 hours with compound. How it is done: Compounds were assessed for RORgt functional modulation using either the RORgt ligand binding domain (LBD) reporter assay, or the RORgt full-length (FL) reporter assay.
A reporter assay was used to test functional activity of RORγt modulatory compounds on transcriptional activation driven by the RORγt LBD. Cells used in the assay were co-transfected with two constructs. The first construct, pBIND-RORγt LBD, contained the wild type human RORγt LBD fused to the DNA binding domain of the GAL4 protein. The second construct, pGL4.31 (Promega Cat no. C935A), contained multiple GAL4 responsive DNA elements upstream of firefly luciferase. […] The mutant construct was called pBIND-RORγt-AF2.
The pBIND vector contains the GAL4 DNA Binding Domain (GAL4 DBD) and the renilla luciferase gene under control of the SV40 promoter. Renilla luciferase expression serves as a control for transfection efficiency and cell viability.
The reporter assay was performed by transiently transfecting HEK293T cells with 5 μg of pBIND-RORγt LBD or pBIND-RORγt LBD-AF2 and 5 μg pGL4.31 (Promega Cat no. C935A) using Fugene 6 (Invitrogen Cat no. E2691) at a 1:6 ratio of DNA: Fugene 6 in a T-75 flask in which cells were at least 80% confluent. Twenty four hours after bulk transfection, cells were plated into 96-well plates at 50,000 cells/well in phenol-red free DMEM containing 5% Lipid Reduced FCS and Pen/Strep. Six hours after plating, cells were treated with compounds for 24 hours. Media was removed and cells were lysed with 50 μL 1× Glo Lysis Buffer (Promega). Dual Glo Luciferase Reagent (50 μL/well) was then added and firefly luciferase luminescence was read on an Envision after a ten minute incubation. Finally, Stop and Glo reagent (50 μL/well) was added and renilla luciferase luminescence was read on an Envision after a ten minute incubation. To calculate the effect of compounds on RORγt activity, the ratio of firefly to renilla luciferase was determined and plotted against compound concentration. Agonist compounds increase RORγt-driven luciferase expression, and antagonist or inverse agonist compounds decrease luciferase expression.
(Reporter assays use an easily measured gene product as a stand-in for the process of interest.)

In assay [2] the target is T2, human RORγt ligand binding domain (RORγt LBD) (Homo sapiens, UniProt P51449).
T2 construct: His-tag (N); TurboTEV protease cleavage site (ENLYFQG) (N); made in house; host or cells: E. coli (pHIS1, modified pET vector)
T2 sequence (P51449 with tags, fused parts or gaps): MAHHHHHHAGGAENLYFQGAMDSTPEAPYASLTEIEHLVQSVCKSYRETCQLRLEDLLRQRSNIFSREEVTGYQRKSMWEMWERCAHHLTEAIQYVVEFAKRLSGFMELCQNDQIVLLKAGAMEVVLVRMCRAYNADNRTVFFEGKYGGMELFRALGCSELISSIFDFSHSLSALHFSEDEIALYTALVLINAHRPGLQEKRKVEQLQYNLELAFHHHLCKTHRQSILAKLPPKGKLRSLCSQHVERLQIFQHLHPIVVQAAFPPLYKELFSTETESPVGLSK
As to the kind of experiment: RORγt ThermoFluor assay (thermal shift binding affinity). Conditions: 0.065 mg/mL RORγt, pH 7.0; estimated from concentration response curves. On the procedure:
This approach is applicable to a wide variety of systems, and rigorous in theoretical interpretation through quantitation of equilibrium binding constants (KD).
The shift in the melting point described as a ΔTm is proportional to the concentration and affinity of the ligand. The compound potency may be compared as a rank order of either ΔTm values at a single compound concentration or in terms of KD values, estimated from concentration response curves.
ThermoFluor® experiments were carried out using instruments owned by Janssen Research and Discovery, L.L.C. through its acquisition of 3-Dimensional Pharmaceuticals, Inc. 1,8-ANS (Invitrogen) was used as a fluorescent dye. […]
Fluorescence was measured by continuous illumination with UV light (Hamamatsu LC6) supplied via fiber optic and filtered through a band-pass filter (380-400 nm; >6 OD cutoff). Fluorescence emission of the entire 384-well plate was detected by measuring light intensity using a CCD camera (Sensys, Roper Scientific) filtered to detect 500±25 nm, resulting in simultaneous and independent readings of all 384 wells. Images were collected at each temperature, and the sum of the pixel intensity in a given area of the assay plate was recorded versus temperature. […]

In assay [3] the test system is IL-17 production by CD4 T cells. As to the kind of experiment: Human Th17 Assay. In kind it is cell-based. Conditions: human CD4+ T cells under Th17 differentiation, 3 days, IL-17 in supernatant. The source says: The human Th17 assay tests the effect of RORγt modulatory compounds on IL-17 production by CD4 T cells under conditions which favor Th17 differentiation.
Total CD4^+ T cells were isolated from the peripheral blood mononuclear cells (PBMC) of healthy donors using a CD4^+ T cell isolation kit II, following the manufacturer's instructions (Miltenyi Biotec). Cells were resuspended in a medium of RPMI-1640 supplemented with 10% fetal bovine serum, penicillin, streptomycin, glutamate, and β-mercaptoethanol and were added to 96-well plates at 1.5×10^5 per 100 μL per well. 50 μL of compound at titrated concentrations in DMSO were added into each well at final DMSO concentration at 0.2%. Cells were incubated for 1 hour, then 50 μL of Th17 cell differentiation medium was added to each well. […] Supernatants were collected and the accumulated IL-17 in culture was measured by using MULTI-SPOT® Cytokine Plate following manufacture's instruction (Meso Scale Discovery). The plate was read using Sector Imager 6000, and IL-17 concentration was extrapolated from the standard curve. The IC50s were determined by GraphPad.

What is called IC50 is the concentration that inhibits the measured activity by half. With `COc1nc2ccc(C(O)c3cnc(C)n3C)cc2c(Cl)c1Cc1ccc(F)cc1` (centres unmarked) [Example 8a], the IC50 in assay [1] is > 6000 nM.

Usually inhibition stands for the relative decrease from the control value, in per cent. A lower inhibition goes with a weak effect. Usually Kd stands for the concentration at which binding is half-saturated. In the case of `COc1nc2ccc(C(O)c3cnc(C)n3C)cc2c(Cl)c1Cc1ccc(F)cc1` (single isomer, unassigned) [Example 8b], in assay [1], the IC50 is > 6000 nM. The inhibition at 6 µM in assay [1] (HEK-293T, 6 μM compound) came to 31%. Further, in assay [2], the Kd is 180 nM.

In turn, `COc1nc2ccc(C(O)c3cnnn3C)cc2c(Cl)c1Cc1ccc(-n2cccn2)cc1` (single isomer, unassigned) [Example 5b, (3-(4-(1H-Pyrazol-1-yl)benzyl)-4-chloro-2-methoxyquinolin-6-yl)(1-methyl-1H-1,2,3-triazol-5-yl)methanol] yielded an IC50 in assay [3] of 1500 nM.

In assay [3], `COc1nc2ccc(C(O)c3cnnn3C)cc2c(Cl)c1Cc1ccc(-n2cccn2)cc1` (single isomer, unassigned) [Example 5c, (3-(4-(1H-Pyrazol-1-yl)benzyl)-4-chloro-2-methoxyquinolin-6-yl)(1-methyl-1H-1,2,3-triazol-5-yl)methanol] had an IC50 of 610 nM.

Turning to `COc1nc2ccc(C(O)c3cnc(C)n3C)cc2c(Cl)c1Cc1ccc(F)cc1` (single isomer, unassigned) [Example 8c], the IC50 in assay [1] is > 6000 nM. In assay [2], the Kd was 95 nM.
